Source: US9855268B2, “Triazolo[4,5-d]pyrimidine derivatives” (Merck Patent GmbH, priority 2013, dated 2018)
Read-outs that look alike come from different tables or passages of the source.

Columns and labels:
GSK3α(h) = GSK3α(h) (Homo sapiens, UniProt P49840); test: GSK3α radiometric kinase assay (33P-ATP, phospho GS2 peptide); assay type: biochemical; details: read-out: IC50 GSK3α (enzyme assay)
Method: GSK3α(h) is incubated with 8 mM MOPS pH 7,0, 0,2 mM EDTA, 20 μM
(§1) […](p)EDEEE (phosphor GS2 peptide), 10 mM Mg-acetate and [gamma-33P-ATP](specific activity approx. 500 cpm/Pmol, concentration as required). The reaction is initiated by the addition of the MgATP. After incubation for 40 minutes at the room temperature, the Reaction is stopped by the addition of 3% phosphoric acid solution. 10 μL of reaction is then spotted onto a P30 filtermat and washed three times for 5 minutes in 50 mM phosphoric acid and once in methanol prior to drying and scintillation counting.

GSK3β(h) = GSK3β(h) (Homo sapiens, UniProt P49841); test: GSK3β radiometric kinase assay (33P-ATP, phospho GS2 peptide); assay type: biochemical; details: read-out: IC50 GSK3β (enzyme assay)
Method: GSK3β(h) is incubated with 8 mM MOPS pH 7,0, 0,2 mM EDTA, 20 μM
as §1

GCN2 [1] = target: T1, GCN2 (Homo sapiens, UniProt Q9P2K8); test: GCN2 enzyme assay (TR-FRET Lanthascreen, GFP-eIF2alpha phosphorylation); assay type: biochemical; details: 10 μM ATP, 80 nM GFP-eIF2a, 30 nM GCN2
Summary of the method: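 Kinase reaction with 10 μM ATP and 80 nM GFP-labelled eIF2alpha substrate at room temperature, stopped with EDTA. Phospho-eIF2alpha detected by TR-FRET between antibody and GFP-substrate, excitation at 340 nm.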
Target sequence in this assay (Q9P2K8 whole entry, species assumed): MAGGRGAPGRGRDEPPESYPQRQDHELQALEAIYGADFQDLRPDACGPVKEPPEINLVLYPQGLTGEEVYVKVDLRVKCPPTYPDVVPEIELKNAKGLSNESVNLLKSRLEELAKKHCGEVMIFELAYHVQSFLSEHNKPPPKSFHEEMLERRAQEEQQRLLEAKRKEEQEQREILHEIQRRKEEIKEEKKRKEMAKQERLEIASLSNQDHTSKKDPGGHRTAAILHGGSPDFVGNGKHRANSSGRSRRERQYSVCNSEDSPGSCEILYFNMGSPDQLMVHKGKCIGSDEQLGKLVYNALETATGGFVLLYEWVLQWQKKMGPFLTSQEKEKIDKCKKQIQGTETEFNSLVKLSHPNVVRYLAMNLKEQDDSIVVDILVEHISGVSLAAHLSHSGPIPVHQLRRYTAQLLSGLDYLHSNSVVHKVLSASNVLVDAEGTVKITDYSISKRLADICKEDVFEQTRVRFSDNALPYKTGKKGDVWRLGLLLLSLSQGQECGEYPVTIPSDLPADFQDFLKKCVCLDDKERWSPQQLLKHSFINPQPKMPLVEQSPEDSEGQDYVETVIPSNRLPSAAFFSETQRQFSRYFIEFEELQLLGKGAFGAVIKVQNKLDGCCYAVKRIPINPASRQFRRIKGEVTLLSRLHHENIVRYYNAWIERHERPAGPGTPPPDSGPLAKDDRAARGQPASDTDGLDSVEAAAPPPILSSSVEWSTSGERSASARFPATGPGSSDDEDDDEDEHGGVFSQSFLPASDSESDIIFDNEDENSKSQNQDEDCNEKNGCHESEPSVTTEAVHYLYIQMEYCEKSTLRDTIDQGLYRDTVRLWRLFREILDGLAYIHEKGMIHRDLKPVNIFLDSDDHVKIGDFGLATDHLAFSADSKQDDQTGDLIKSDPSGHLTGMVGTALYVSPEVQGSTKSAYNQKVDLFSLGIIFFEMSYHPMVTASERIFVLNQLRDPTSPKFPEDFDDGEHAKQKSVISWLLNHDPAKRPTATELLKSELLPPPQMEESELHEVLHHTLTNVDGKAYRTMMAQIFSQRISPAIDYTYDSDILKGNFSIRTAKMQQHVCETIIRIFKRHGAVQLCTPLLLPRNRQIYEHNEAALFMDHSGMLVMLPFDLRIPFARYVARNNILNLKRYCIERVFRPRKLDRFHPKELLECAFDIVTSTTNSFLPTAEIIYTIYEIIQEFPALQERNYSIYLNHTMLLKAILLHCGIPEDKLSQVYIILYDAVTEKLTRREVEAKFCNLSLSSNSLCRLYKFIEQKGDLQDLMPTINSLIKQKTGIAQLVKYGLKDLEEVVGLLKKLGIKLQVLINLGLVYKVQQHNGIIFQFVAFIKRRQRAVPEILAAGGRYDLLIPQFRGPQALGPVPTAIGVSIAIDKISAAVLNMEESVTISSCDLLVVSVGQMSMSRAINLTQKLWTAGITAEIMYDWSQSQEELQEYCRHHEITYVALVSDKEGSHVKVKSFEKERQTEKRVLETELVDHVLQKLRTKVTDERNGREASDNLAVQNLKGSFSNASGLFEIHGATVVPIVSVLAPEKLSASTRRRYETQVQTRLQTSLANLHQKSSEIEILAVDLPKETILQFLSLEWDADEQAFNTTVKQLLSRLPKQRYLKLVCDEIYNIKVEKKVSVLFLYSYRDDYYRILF

GCN2 [2] = target: T1, GCN2; test: Cellular assay of GCN2 activity (phospho-eIF2alpha immunocytochemistry after tryptophanol); assay type: cell-based; design: endogenous in cells; host or cells: U2OS; details: Human U2OS cells, 2 h compound, 600 μM tryptophanol 30 min
Method: Cellular Assay for the Determination of Compound Activities
Human U2OS cells (2000 cells/well) are seeded into 384-well plates and incubated for 20 hours.
The next day, the cells are treated with the test compounds and incubated for 2 hours. Then, tryptophanol, at a final concentration of 600 μM, is added to the cells and those are incubated for 30 minutes.
The analysis of cellular GCN2 activities is done by immunocytochemistry.
Briefly, cells are fixated on the well surfaces by formaldehyde and permeabilised with Triton X-100.
The analysis and quantification of phosphorylated GCN2 is done by scanning the plates in the Acumen Explorer system (TTPLabtech). The obtained data are normalised against the untreated control wells (DMSO only) and expressed as % effect values. The determination of IC50 values is done by using the Graph Pad Prism software.
Target sequence in this assay (Q9P2K8 whole entry): as the sequence (Q9P2K8 whole entry, species assumed) above

Chain of GSK3β(h) (P49841 whole entry): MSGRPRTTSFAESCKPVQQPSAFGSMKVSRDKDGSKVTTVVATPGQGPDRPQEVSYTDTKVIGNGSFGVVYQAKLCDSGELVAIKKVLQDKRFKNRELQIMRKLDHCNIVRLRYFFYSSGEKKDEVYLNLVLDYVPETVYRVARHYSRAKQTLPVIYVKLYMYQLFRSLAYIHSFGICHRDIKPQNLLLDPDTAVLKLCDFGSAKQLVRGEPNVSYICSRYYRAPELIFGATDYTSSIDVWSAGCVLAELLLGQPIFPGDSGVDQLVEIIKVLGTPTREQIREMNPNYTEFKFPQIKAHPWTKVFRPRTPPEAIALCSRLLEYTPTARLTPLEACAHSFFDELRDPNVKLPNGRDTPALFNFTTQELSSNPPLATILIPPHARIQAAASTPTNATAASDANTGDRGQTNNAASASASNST
Chain of GSK3α(h) (P49840 whole entry): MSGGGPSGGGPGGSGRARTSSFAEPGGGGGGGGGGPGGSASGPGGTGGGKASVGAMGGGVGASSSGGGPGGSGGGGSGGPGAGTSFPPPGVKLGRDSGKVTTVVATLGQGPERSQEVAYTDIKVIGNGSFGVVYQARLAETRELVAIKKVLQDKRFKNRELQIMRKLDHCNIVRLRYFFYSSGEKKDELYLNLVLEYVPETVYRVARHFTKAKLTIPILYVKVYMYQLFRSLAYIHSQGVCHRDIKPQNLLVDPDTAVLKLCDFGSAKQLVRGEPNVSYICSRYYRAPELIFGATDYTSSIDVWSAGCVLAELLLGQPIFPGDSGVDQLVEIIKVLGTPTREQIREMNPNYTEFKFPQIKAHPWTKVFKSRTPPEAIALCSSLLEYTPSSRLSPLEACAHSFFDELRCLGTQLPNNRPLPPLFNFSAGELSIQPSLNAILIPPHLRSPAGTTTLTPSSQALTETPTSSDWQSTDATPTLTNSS

| IC50 (GSK3α(h)) | IC50 (GSK3β(h)) | IC50 (GCN2 [1]) | IC50 (GCN2 [2]) | IC50 (GSK3α(h); 10 μM ATP or Km ATP) | SMILES |
| --- | --- | --- | --- | --- | --- |
| < 1000 nM | 1000 to 5000 nM | < 1000 nM | – | – | COc1ccc(-n2nnc3cnc(N[C@@H]4CCC[C@@H](C(N)=O)C4)nc32)cc1 (relative stereo) [A148, (trans)-3-[3-(4-methoxy-phenyl)-3H-[1,2,3]triazolo[4,5-d]pyrimidin-5-ylamino]-cyclohexanecarboxylic acid amide] |
| < 1000 nM | < 1000 nM | < 1000 nM | – | – | Cc1ncc2cc(-n3nnc4cnc(N[C@@H]5CC[C@@H](O)C5)nc43)ccc2n1 (relative stereo) [A209, (trans)-3-[3-(2-methyl-quinazolin-6-yl)-3H-[1,2,3]triazolo[4,5-d]pyrimidin-5-ylamino]-cyclopentanol] |
| < 1000 nM | < 1000 nM | < 1000 nM | – | – | COc1ccc(-n2nnc3cnc(N[C@H]4CC[C@H](S(N)(=O)=O)C4)nc32)cc1 (relative stereo) [A288, (trans)-3-[3-(4-methoxy-phenyl)-3H-[1,2,3]triazolo[4,5-d]pyrimidin-5-ylamino]-cyclopentanesulfonic acid amide] |
| < 1000 nM | < 1000 nM | < 1000 nM | – | – | COc1ccc(-n2nnc3cnc(N[C@@H]4CCN(c5cnn(C)c5)C4)nc32)cc1 [A115, [3-(4-methoxy-phenyl)-3H-[1,2,3]triazolo[4,5-d]pyrimidin-5-yl]-[(R)-1-(1-methyl-1H-pyrazol-4-yl)-pyrrolidin-3-yl]-amine] |
| < 1000 nM | 1000 to 5000 nM | < 1000 nM | – | – | N[C@H]1CC[C@@H](Nc2ncc3nnn(-c4ccc5ncccc5c4)c3n2)C1 [A119, (1S,3R)-N3-(3-quinolin-6-yl-3H-[1,2,3]triazolo[4,5-d]pyrimidin-5-yl)-cyclopentane-1,3-diamine] |
| < 1000 nM | – | < 1000 nM | 5 to 10 µM | – | CN1CCN(CCC(=O)N2CC[C@@H](Nc3ncc4nnn(-c5ccc(-c6cnn(C)c6)cc5)c4n3)C2)CC1 [A131, 3-(4-methyl-piperazin-1-yl)-1-((R)-3-{3-[4-(1-methyl-1H-pyrazol-4-yl)-phenyl]-3H-[1,2,3]triazolo[4,5-d]pyrimidin-5-ylamino}-pyrrolidin-1-yl)-propan-1-one] |
| < 1000 nM | 1000 to 5000 nM | < 1000 nM | – | – | CN1CCN(CCC(=O)N2CC[C@@H](Nc3ncc4nnn(-c5ccc6ncccc6c5)c4n3)C2)CC1 [A133, 3-(4-methyl-piperazin-1-yl)-1-[(R)-3-(3-quinolin-6-yl-3H-[1,2,3]triazolo[4,5-d]pyrimidin-5-ylamino)-pyrrolidin-1-yl]-propan-1-one] |
| < 1000 nM | 1000 to 5000 nM | < 1000 nM | – | – | Cc1ccc2cc(-n3nnc4cnc(N[C@@H]5CCN(C(=O)CCN6CCN(C)CC6)C5)nc43)ccc2n1 [A134, 3-(4-methyl-piperazin-1-yl)-1-{(R)-3-[3-(2-methyl-quinolin-6-yl)-3H-[1,2,3]triazolo[4,5-d]pyrimidin-5-ylamino]-pyrrolidin-1-yl}-propan-1-one] |
| < 1000 nM | < 1000 nM | < 1000 nM | – | – | COc1ccc(-n2nnc3cnc(N[C@@H]4CC[C@H](C(N)=O)C4)nc32)cc1 [A136, (1S,3R)-3-[3-(4-methoxy-phenyl)-3H-[1,2,3]triazolo[4,5-d]pyrimidin-5-ylamino]-cyclopentanecarboxylic acid amide] |
| < 1000 nM | < 1000 nM | < 1000 nM | – | – | COc1ccc(-n2nnc3cnc(N[C@H]4CC[C@H](C(N)=O)C4)nc32)cc1 [A137, (1S,3S)-3-[3-(4-methoxy-phenyl)-3H-[1,2,3]triazolo[4,5-d]pyrimidin-5-ylamino]-cyclopentanecarboxylic acid amide] |
| < 1000 nM | – | < 1000 nM | 1 to 5 µM | – | COc1ccc(-n2nnc3cnc(N[C@@H]4CC[C@@H](C(N)=O)C4)nc32)cc1 [A140, (1R,3R)-3-[3-(4-methoxy-phenyl)-3H-[1,2,3]triazolo[4,5-d]pyrimidin-5-ylamino]-cyclopentanecarboxylic acid amide] |
| < 1000 nM | – | < 1000 nM | 5 to 10 µM | – | Cc1nc2ccc(-n3nnc4cnc(N[C@@H]5CC[C@H](C(N)=O)C5)nc43)cc2o1 [A141, (1S,3R)-3-[3-(2-methyl-benzoxazol-6-yl)-3H-[1,2,3]triazolo[4,5-d]pyrimidin-5-ylamino]-cyclopentanecarboxylic acid amide] |
| < 1000 nM | < 1000 nM | < 1000 nM | – | – | COc1ccc(-n2nnc3cnc(N[C@H]4C[C@H](C(N)=O)C4)nc32)cc1 [A145, (trans)-3-[3-(4-methoxy-phenyl)-3H-[1,2,3]triazolo[4,5-d]pyrimidin-5-ylamino]-cyclobutanecarboxylic acid amide] |
| < 1000 nM | < 1000 nM | < 1000 nM | – | – | NC(=O)[C@@H]1CC[C@@H](Nc2ncc3nnn(-c4ccc(N5CCCC5)cc4)c3n2)C1 [A146, (1R,3R)-3-[3-(4-pyrrolidin-1-yl-phenyl)-3H-[1,2,3]triazolo[4,5-d]pyrimidin-5-ylamino]-cyclopentanecarboxylic acid amide] |
| < 1000 nM | – | < 1000 nM | 1 to 5 µM | – | NC(=O)[C@H]1CC[C@@H](Nc2ncc3nnn(-c4ccc5ncccc5c4)c3n2)C1 [A189, (1S,3R)-3-(3-quinolin-6-yl-3H-[1,2,3]triazolo[4,5-d]pyrimidin-5-ylamino)-cyclopentanecarboxylic acid amide] |
| < 1000 nM | – | < 1000 nM | 5 to 10 µM | – | NC(=O)[C@@H]1CC[C@@H](Nc2ncc3nnn(-c4ccc5ncccc5c4)c3n2)C1 [A190, (1R,3R)-3-(3-quinolin-6-yl-3H-[1,2,3]triazolo[4,5-d]pyrimidin-5-ylamino)-cyclopentanecarboxylic acid amide] |
| < 1000 nM | – | < 1000 nM | 1 to 5 µM | – | O[C@@H]1CC[C@@H](Nc2ncc3nnn(-c4ccc(-c5cnn(CCN6CCCC6)c5)cc4)c3n2)C1 [A213, (1R,3R)-3-(3-{4-[1-(2-pyrrolidin-1-yl-ethyl)-1H-pyrazol-4-yl]-phenyl}-3H-[1,2,3]triazolo[4,5-d]pyrimidin-5-ylamino)-cyclopentanol] |
| < 1000 nM | – | < 1000 nM | 5 to 10 µM | – | N[C@H]1CC[C@H](Nc2ncc3nnn(-c4ccc(-c5cnn(CCn6cccn6)c5)cc4)c3n2)CC1 [A215, N-(3-{4-[1-(2-pyrazol-1-yl-ethyl)-1H-pyrazol-4-yl]-phenyl}-3H-[1,2,3]triazolo[4,5-d]pyrimidin-5-yl)-cyclohexane-1,4-diamine] |
| < 1000 nM | – | < 1000 nM | 1 to 5 µM | – | NC(=O)[C@H]1CC[C@@H](Nc2ncc3nnn(-c4ccc(-c5cnn(CCN6CCCC6)c5)cc4)c3n2)C1 [A216, (1S,3R)-3-(3-{4-[1-(2-pyrrolidin-1-yl-ethyl)-1H-pyrazol-4-yl]-phenyl}-3H-[1,2,3]triazolo[4,5-d]pyrimidin-5-ylamino)-cyclopentanecarboxylic acid amide] |
| < 1000 nM | – | < 1000 nM | 1 to 5 µM | – | COc1ccc(-n2nnc3cnc(N[C@@H]4CC[C@@H](C(=O)N5CCN(C)CC5)C4)nc32)cc1 [A241, {(1R,3R)-3-[3-(4-methoxy-phenyl)-3H-[1,2,3]triazolo[4,5-d]pyrimidin-5-ylamino]-cyclopentyl}-(4-methyl-piperazin-1-yl)-methanone] |
| < 1000 nM | – | < 1000 nM | 1 to 5 µM | – | CN1CCN(CCNC(=O)[C@H]2CC[C@@H](Nc3ncc4nnn(-c5ccc6ncccc6c5)c4n3)C2)CC1 [A242, (1S,3R)-3-(3-quinolin-6-yl-3H-[1,2,3]triazolo[4,5-d]pyrimidin-5-ylamino)-cyclopentanecarboxylic acid [2-(4-methyl-piperazin-1-yl)-ethyl]-amide] |
| – | – | < 1000 nM | 1 to 5 µM | < 1000 nM | NC(=O)[C@@H]1CC[C@@H](Nc2ncc3nnn(-c4ccc(-c5cnn(CCO)c5)cc4)c3n2)C1 [A255, (1R,3R)-3-(3-{4-[1-(2-hydroxy-ethyl)-1H-pyrazol-4-yl]-phenyl}-3H-[1,2,3]triazolo[4,5-d]pyridimdin-5-ylamino)-cyclopentanecarboxylic acid amide] |
| < 1000 nM | – | < 1000 nM | 1 to 5 µM | – | NC(=O)[C@H]1CC[C@@H](Nc2ncc3nnn(-c4ccc(-c5cnn(CCO)c5)cc4)c3n2)C1 [A258, (1S,3R)-3-(3-{4-[1-(2-hydroxy-ethyl)-1H-pyrazol-4-yl]-phenyl}-3H-[1,2,3]triazolo[4,5-d]pyrimidin-5-ylamino)-cyclopentanecarboxylic acid amide] |
